Molecular target: T1, Interleukin-1 receptor-associated kinase 4 (Homo sapiens, UniProt Q9NWZ3)
T1 sequence (Q9NWZ3 whole entry): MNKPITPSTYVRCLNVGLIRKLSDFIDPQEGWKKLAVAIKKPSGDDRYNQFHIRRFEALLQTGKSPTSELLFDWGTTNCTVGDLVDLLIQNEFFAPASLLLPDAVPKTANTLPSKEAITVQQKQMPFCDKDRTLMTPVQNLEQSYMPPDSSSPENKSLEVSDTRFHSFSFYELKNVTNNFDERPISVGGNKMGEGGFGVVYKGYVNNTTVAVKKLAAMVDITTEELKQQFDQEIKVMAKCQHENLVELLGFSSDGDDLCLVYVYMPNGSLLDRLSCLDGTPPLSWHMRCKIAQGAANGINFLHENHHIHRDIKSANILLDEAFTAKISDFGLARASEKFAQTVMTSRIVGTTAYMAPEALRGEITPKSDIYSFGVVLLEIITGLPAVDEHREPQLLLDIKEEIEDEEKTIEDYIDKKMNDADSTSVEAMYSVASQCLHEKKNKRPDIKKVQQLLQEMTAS
Assay: Inhibition of IRAK4
`COc1ccc2ncc(-c3cccc(NC4CCNCC4)n3)n2c1` gave an IC50 of 6 nM.
With `COc1ccc(-c2ccc3ncc(-c4cccc(NC5CCNCC5)n4)n3c2)cn1` the IC50 was 8 nM.
Compound `c1cc(NCC2CCNCC2)nc(-c2cnc3ccccn23)c1` has an IC50 of 3030 nM.
With `Cc1ccc2ncn(-c3cccc(NC4CCNCC4)n3)c2c1` the IC50 was 10 nM.
Compound `c1cc(-c2cnc3ccccn23)nc(N2C[C@H]3C[C@@H]2CN3)c1` has an IC50 of 126 nM.
With `c1cc(NC2CCNC2)nc(-c2cnc3ccccn23)c1` (racemic) the IC50 was 545 nM.
Compound `c1cc(NC2C[C@H]3CC[C@@H](C2)N3)nc(-c2cnc3ccccn23)c1` (stereo partly drawn) has an IC50 of 225 nM.
`O=C(c1ccc2ncc(-c3cccc(NC4CCNCC4)n3)n2c1)N1CCOCC1` gave an IC50 of 263 nM.
Compound `Clc1ccc2ncc(-c3cccc(NC4CCNC4)n3)n2c1` (racemic) has an IC50 of 1 nM.
For `Clc1cc2ncn(-c3cccc(NC4CCNCC4)n3)c2cc1Cl`, the IC50 was 166 nM.
For `Cn1nccc1Nc1cccc(-c2cnc3ccccn23)n1`, the IC50 was 1130 nM.
In the case of `Cc1ccc2c(c1)ncn2-c1cccc(NC2CCNCC2)n1`, the IC50 is reported as 1080 nM.
`COc1ccc2c(c1)ncn2-c1cccc(NC2CCNCC2)n1` showed an IC50 of 208 nM.
In the case of `c1cc(NC2CCNCC2)nc(-c2cnc3ccc(-c4ccc[nH]4)cn23)c1`, the IC50 is reported as 63 nM.
In the case of `N#Cc1ccccc1Nc1cccc(-c2cnc3ccccn23)n1`, the IC50 is reported as 433 nM.
For `c1cc(NCC2CCCN2)nc(-c2cnc3ccccn23)c1` (racemic), the IC50 was 313 nM.
With `Clc1ccc2c(c1)ncn2-c1cccc(NC2CCNCC2)n1` the IC50 was 112 nM.
`c1cc(NC2CCNCC2)nc(-c2cnc3ccc(-c4cc[nH]n4)cn23)c1` showed an IC50 of 2 nM.
Work on `COc1cc2ncn(-c3cccc(NC4CCNCC4)n3)c2cc1OC` yielded an IC50 of 181 nM.
For `NC(=O)c1ccc2ncc(-c3cccc(NC4CCNCC4)n3)n2c1`, the IC50 was 5 nM.
`c1cc(-c2cnc3ccccn23)nc(N2CCCNCC2)c1` showed an IC50 of 487 nM.
With `N#Cc1ccc2ncc(-c3cccc(NC4CCNCC4)n3)n2c1` the IC50 was 4 nM.
With `CN(C)CCCNc1cccc(-c2cnc3ccccn23)n1` the IC50 was 8100 nM.
For `c1cc(N[C@H]2CCCNC2)nc(-c2cnc3ccccn23)c1`, the IC50 was 19 nM.
With `COc1ccc2ncc(-c3cccc(NC4CNC4)n3)n2c1` the IC50 was 7 nM.
`Clc1ccc2ncn(-c3cccc(NC4CCNCC4)n3)c2c1` showed an IC50 of 3 nM.
`CN1[C@@H]2CC[C@H]1CC(Nc1cccc(-c3cnc4ccccn34)n1)C2` (stereo partly drawn) showed an IC50 of 914 nM.
In the case of `CN(C)C(=O)c1ccc2ncc(-c3cccc(NC4CCNCC4)n3)n2c1`, the IC50 is reported as 49 nM.
`c1cc(NC2CNC2)nc(-c2cnc3ccccn23)c1` gave an IC50 of 39 nM.
In the case of `NC1CCN(c2cccc(-c3cnc4ccccn34)n2)CC1`, the IC50 is reported as 1880 nM.
`NC1CCCN(c2cccc(-c3cnc4ccccn34)n2)C1` (racemic) showed an IC50 of 535 nM.
With `Cn1cc(-c2ccc3ncc(-c4cccc(NC5CCNCC5)n4)n3c2)cn1` the IC50 was 7 nM.
Compound `c1ccc(Nc2cccc(-c3cnc4ccccn34)n2)cc1` has an IC50 of 1160 nM.
`COc1ccc2ncn(-c3cccc(NC4CCNCC4)n3)c2c1` gave an IC50 of 15 nM.
`NCCCNc1cccc(-c2cnc3ccccn23)n1` showed an IC50 of 1300 nM.
In the case of `Cn1cnc(CNc2cccc(-c3cnc4ccccn34)n2)c1`, the IC50 is reported as 497 nM.
With `N#Cc1ccc2ncc(-c3cccc(N[C@@H]4CCCNC4)n3)n2c1` the IC50 was 95 nM.
In the case of `Clc1ccc2ncc(-c3cccc(NC4CNC4)n3)n2c1`, the IC50 is reported as 6 nM.

Molecular target: T2, Interleukin-1 receptor-associated kinase 4 (Homo sapiens) (UniProt Q9NWZ3)
T2 sequence (whole entry): T1 sequence (Q9NWZ3 whole entry)
Assay: Inhibition of IRAK4 at 10 uM
`N#Cc1ccc(Nc2cccc(-c3cnc4ccccn34)n2)cc1` gave an inhibition of 12%.

Molecular target: Interleukin-1 receptor-associated kinase 1 (Homo sapiens, UniProt P51617)
Sequence (P51617 whole entry): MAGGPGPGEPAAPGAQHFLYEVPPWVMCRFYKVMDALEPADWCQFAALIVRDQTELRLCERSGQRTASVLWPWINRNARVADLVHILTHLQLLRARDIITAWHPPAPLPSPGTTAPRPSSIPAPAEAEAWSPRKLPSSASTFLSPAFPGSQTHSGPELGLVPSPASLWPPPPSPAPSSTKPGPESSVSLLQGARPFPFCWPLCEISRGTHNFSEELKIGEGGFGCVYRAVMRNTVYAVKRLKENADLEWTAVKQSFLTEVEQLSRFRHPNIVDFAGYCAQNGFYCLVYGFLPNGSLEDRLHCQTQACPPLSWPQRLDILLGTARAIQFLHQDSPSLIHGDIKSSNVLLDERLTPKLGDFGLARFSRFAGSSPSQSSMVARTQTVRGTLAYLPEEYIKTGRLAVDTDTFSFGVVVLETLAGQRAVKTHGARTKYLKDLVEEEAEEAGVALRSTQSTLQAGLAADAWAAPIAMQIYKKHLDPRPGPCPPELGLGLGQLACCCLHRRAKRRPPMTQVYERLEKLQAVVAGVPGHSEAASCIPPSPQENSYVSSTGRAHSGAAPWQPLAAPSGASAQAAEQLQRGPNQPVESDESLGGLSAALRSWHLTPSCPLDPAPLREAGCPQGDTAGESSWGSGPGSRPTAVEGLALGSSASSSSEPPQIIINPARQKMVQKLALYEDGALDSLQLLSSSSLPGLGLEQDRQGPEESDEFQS
Assay: Inhibition of IRAK1
With `COc1ccc2ncc(-c3cccc(NC4CCNCC4)n3)n2c1` the IC50 was 293000 nM.
In the case of `Clc1ccc2ncc(-c3cccc(NC4CCNC4)n3)n2c1` (racemic), the IC50 is reported as 23000 nM.
`N#Cc1ccc2ncc(-c3cccc(NC4CCNCC4)n3)n2c1` showed an IC50 of 96000 nM.
Work on `Clc1ccc2ncc(-c3cccc(NC4CCCNC4)n3)n2c1` (racemic) yielded an IC50 of 175000 nM.
`Clc1ccc2ncc(-c3cccc(NC4CNC4)n3)n2c1` showed an IC50 of 195000 nM.

System: PBMC
Assay: Inhibition of LPS-induced TNFalpha release in human PBMC cells
Type: functional
In the case of `COc1ccc2ncc(-c3cccc(NC4CCNCC4)n3)n2c1`, the Activity is reported as 220 nM.
`Clc1ccc2ncc(-c3cccc(NC4CCNC4)n3)n2c1` (racemic) showed an Activity of 16 nM.
With `N#Cc1ccc2ncc(-c3cccc(NC4CCNCC4)n3)n2c1` the Activity was 200 nM.
For `Clc1ccc2ncc(-c3cccc(NC4CCCNC4)n3)n2c1` (racemic), the Activity was 65 nM.
For `Clc1ccc2ncc(-c3cccc(NC4CNC4)n3)n2c1`, the Activity was 54 nM.

System: not listed separately
Assay: Intrinsic clearance in human microsomes at 0.5 uM
Type: ADME, Microsome
Compound `COc1ccc2ncc(-c3cccc(NC4CCNCC4)n3)n2c1` has a microsomal CLint at 0.5 µM of 19.5 µL/min/mg.
In the case of `Clc1ccc2ncc(-c3cccc(NC4CCNC4)n3)n2c1` (racemic), the microsomal CLint at 0.5 µM is reported as 19.2 µL/min/mg.
`N#Cc1ccc2ncc(-c3cccc(NC4CCNCC4)n3)n2c1` gave a microsomal CLint at 0.5 µM of 8.3 µL/min/mg.
For `Clc1ccc2ncc(-c3cccc(NC4CCCNC4)n3)n2c1` (racemic), the microsomal CLint at 0.5 µM was 29.5 µL/min/mg.
`Clc1ccc2ncc(-c3cccc(NC4CNC4)n3)n2c1` showed a microsomal CLint at 0.5 µM of 13 µL/min/mg.

System: not listed separately
Assay: Intrinsic clearance in rat microsomes at 0.5 uM
Type: ADME, Microsome
`COc1ccc2ncc(-c3cccc(NC4CCNCC4)n3)n2c1` showed a microsomal CLint at 0.5 µM of 5.3 µL/min/mg.
For `Clc1ccc2ncc(-c3cccc(NC4CCNC4)n3)n2c1` (racemic), the microsomal CLint at 0.5 µM was 49.3 µL/min/mg.
Work on `N#Cc1ccc2ncc(-c3cccc(NC4CCNCC4)n3)n2c1` yielded a microsomal CLint at 0.5 µM of 39.9 µL/min/mg.
Compound `Clc1ccc2ncc(-c3cccc(NC4CCCNC4)n3)n2c1` (racemic) has a microsomal CLint at 0.5 µM of 78.1 µL/min/mg.

Molecular target: Cytochrome P450 2D6 (Homo sapiens, UniProt P10635)
Sequence (P10635 whole entry): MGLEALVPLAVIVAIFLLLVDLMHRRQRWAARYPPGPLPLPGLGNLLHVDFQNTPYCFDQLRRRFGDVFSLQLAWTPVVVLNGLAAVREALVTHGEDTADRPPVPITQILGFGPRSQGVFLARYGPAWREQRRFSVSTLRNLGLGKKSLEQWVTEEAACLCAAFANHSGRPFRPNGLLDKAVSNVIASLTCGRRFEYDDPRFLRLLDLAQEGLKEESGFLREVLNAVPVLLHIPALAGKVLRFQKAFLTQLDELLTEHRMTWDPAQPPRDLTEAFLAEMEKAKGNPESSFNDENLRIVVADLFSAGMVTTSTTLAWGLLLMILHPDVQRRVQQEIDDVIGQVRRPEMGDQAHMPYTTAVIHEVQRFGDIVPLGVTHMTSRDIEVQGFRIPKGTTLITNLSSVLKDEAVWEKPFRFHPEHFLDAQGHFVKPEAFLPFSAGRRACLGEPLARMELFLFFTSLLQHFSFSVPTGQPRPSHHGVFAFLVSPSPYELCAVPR
Assay: Inhibition of CYP2D6
Type: ADME
In the case of `Clc1ccc2ncc(-c3cccc(NC4CCNC4)n3)n2c1` (racemic), the Inhibition is reported as 15%.
Compound `N#Cc1ccc2ncc(-c3cccc(NC4CCNCC4)n3)n2c1` has an Inhibition of 42%.
`Clc1ccc2ncc(-c3cccc(NC4CCCNC4)n3)n2c1` (racemic) gave an Inhibition of 1.8%.

Molecular target: Cytochrome P450 3A4 (Homo sapiens, UniProt P08684)
Sequence (P08684 whole entry): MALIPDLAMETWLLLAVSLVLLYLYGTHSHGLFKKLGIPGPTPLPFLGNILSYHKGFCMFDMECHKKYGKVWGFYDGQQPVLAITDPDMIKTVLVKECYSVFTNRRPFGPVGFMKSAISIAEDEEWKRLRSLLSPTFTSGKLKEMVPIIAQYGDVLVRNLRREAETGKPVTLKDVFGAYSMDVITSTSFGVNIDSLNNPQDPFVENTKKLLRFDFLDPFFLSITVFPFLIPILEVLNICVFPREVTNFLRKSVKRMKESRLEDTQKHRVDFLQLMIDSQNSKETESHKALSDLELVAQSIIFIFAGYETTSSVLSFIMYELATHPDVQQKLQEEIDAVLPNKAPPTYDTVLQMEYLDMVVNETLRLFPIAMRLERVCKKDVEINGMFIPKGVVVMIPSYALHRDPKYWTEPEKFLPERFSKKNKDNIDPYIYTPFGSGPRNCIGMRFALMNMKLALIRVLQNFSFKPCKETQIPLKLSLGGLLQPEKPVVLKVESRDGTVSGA
Assay: Inhibition of CYP3A4
Type: ADME
Parameters: concentration or dose not given beside the values
`COc1ccc2ncc(-c3cccc(NC4CCNCC4)n3)n2c1` gave an Inhibition of 31%.
With `Clc1ccc2ncc(-c3cccc(NC4CCNC4)n3)n2c1` (racemic) the Inhibition was 12%.
`N#Cc1ccc2ncc(-c3cccc(NC4CCNCC4)n3)n2c1` gave an Inhibition of 22%.
In the case of `Clc1ccc2ncc(-c3cccc(NC4CCCNC4)n3)n2c1` (racemic), the Inhibition is reported as 8.6%.
`Clc1ccc2ncc(-c3cccc(NC4CNC4)n3)n2c1` gave an Inhibition of 11%.

Molecular target: T3, CYP2D6 (Homo sapiens, UniProt P10635)
T3 sequence (P10635 whole entry): as the sequence (P10635 whole entry) above
Assay: Inhibition of CYP2D6 at 50 uM
Type: ADME
`COc1ccc2ncc(-c3cccc(NC4CCNCC4)n3)n2c1` gave an inhibition at 50 µM of 41%.

Molecular target: T3, CYP2D6
Assay: Inhibition of CYP2D6 at 10 uM
Type: ADME
`Clc1ccc2ncc(-c3cccc(NC4CNC4)n3)n2c1` showed an inhibition at 10 µM of 21%.

From ChEMBL document CHEMBL1145577, “IRAK-4 inhibitors. Part III: a series of imidazo[1,2-a]pyridines” (Bioorg Med Chem Lett, 2008)
